Measured values taken from patent US20100298141A1, “SUBSTITUTED PYRIDINE N-OXIDE HERBICIDES” (E. I. DU PONT DE NEMOURS AND COMPANY, priority 2007, published 2010).

Experiments:
barnyardgrass = assay: Test A pre-/postemergence greenhouse test; assay type: in vivo, Echinochloa crus-galli; details: for Plant response rating, Barnyardgrass: 0 to 100 scale where 0 is no effect and 100 is complete control; for Barnyardgrass plant response rating: 0 to 100 scale
In short: (§1)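 Pre: directed soil spray on seeded loam/sand. Post: foliar spray, plants 2–10 cm, 1–2 leaf stage, applied concurrently. Vehicle: non-phytotoxic solvent + surfactant. Greenhouse ~10 d; visual injury rating vs untreated controls.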

morningglory [1] = assay: Test A pre-/postemergence greenhouse test; assay type: in vivo, Ipomoea spp.; details: for Plant response rating, Morningglory: 0 to 100 scale where 0 is no effect and 100 is complete control; for Morningglory plant response rating: 0 to 100 scale
In short: as §1

blackgrass = assay: Test C pre-/postemergence test; assay type: in vivo, Alopecurus myosuroides
In short: (§2)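 Compounds in a non-phytotoxic solvent with surfactant applied preemergence to seeded pots and, at the same time, postemergence to plants 2–18 cm tall (1- to 4-leaf stage). Paddy tests: pots flooded to 3 cm, compound applied into the water, depth held throughout.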

green foxtail = assay: Test C pre-/postemergence test; assay type: in vivo, Setaria viridis
In short: as §2

Italian ryegrass = assay: Test C pre-/postemergence test; assay type: in vivo, Lolium multiflorum
In short: as §2

wheat = assay: Test C pre-/postemergence test; assay type: in vivo, Triticum aestivum
In short: as §2

cocklebur = assay: Test C pre-/postemergence test; assay type: in vivo, Xanthium strumarium
In short: as §2

corn = assay: Test C pre-/postemergence test; assay type: in vivo, Zea mays
In short: as §2

crabgrass = assay: Test C pre-/postemergence test; assay type: in vivo, Digitaria sanguinalis
In short: as §2

woolly cupgrass = assay: Test C pre-/postemergence test; assay type: in vivo, Eriochloa villosa
In short: as §2

kochia = assay: Test C pre-/postemergence test; assay type: in vivo, Kochia scoparia
In short: as §2

morningglory [2] = assay: Test C pre-/postemergence test; assay type: in vivo, Ipomoea coccinea
In short: as §2

yellow nutsedge = assay: Test C pre-/postemergence test; assay type: in vivo, Cyperus esculentus
In short: as §2

pigweed = assay: Test C pre-/postemergence test; assay type: in vivo, Amaranthus retroflexus
In short: as §2

soybean = assay: Test C pre-/postemergence test; assay type: in vivo, Glycine max
In short: as §2

[3] = tested on: common (oilseed) sunflower; assay: Test C pre-/postemergence test; assay type: in vivo, Helianthus annuus; details: for Plant response rating, Sunflower: 31 g ai/ha, scale 0 to 100 (0 no effect, 100 complete control)
In short: as §2

umbrella sedge = assay: Test C flooded paddy test; assay type: in vivo, Cyperus difformis; details: Flood
In short: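 Ratings were visual and made relative to untreated controls after 13 to 15 greenhouse days.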

[4] = Postemergence, 500 g ai/ha, 0 is no effect, 100 is complete control
[5] = Preemergence, 125 g ai/ha, 0 no effect, 100 complete control
[6] = 62 g ai/ha, Preemergence, scale 0 to 100
[7] = 125 g ai/ha, preemergence, scale 0 (no effect) to 100 (complete control)
[8] = Postemergence, 125 g ai/ha, scale 0 to 100, 0 no effect, 100 complete control
[9] = Postemergence, 250 g ai/ha, scale 0 to 100, 0 no effect, 100 complete control
[10] = Preemergence, 31 g ai/ha, scale 0 to 100 (0 no effect, 100 complete control)
[11] = preemergence, 250 g ai/ha, scale 0 (no effect) to 100 (complete control)
[12] = 250 g ai/ha, scale 0 to 100, 0 no effect, 100 complete control, 13 to 15 days
[13] = Postemergence, 125 g ai/ha, 0 is no effect, 100 is complete control
[14] = preemergence, 125 g ai/ha, scale 0 (no effect) to 100 (complete control)

CC(Oc1c(CS(=O)(=O)c2cccc[n+]2[O-])c(C(F)(F)F)nn1C)C(F)(F)F (stereo not shown) [Compound 82]
25: Plant response rating, Wheat (wheat; [8])
40: Plant response rating, Morningglory (morningglory [1]; Postemergence, 125 g ai/ha) | Plant response rating (0 to 100), Foxtail, Green (green foxtail; Postemergence, 62 g ai/ha) | Corn plant response rating (corn; [6]) | Plant response rating, Corn (corn; [10]) | Plant response rating, Nutsedge, Yellow (yellow nutsedge; [10])
95: Plant response rating, Blackgrass (blackgrass; [9]) | Foxtail, Green plant response rating (green foxtail; [6]) | Plant response rating, Foxtail, Green (green foxtail; [10])
98: Foxtail, Green plant response rating (green foxtail; [7]) | Crabgrass, Large plant response rating (crabgrass; [7]) | Cupgrass, Woolly plant response rating (woolly cupgrass; [11]) | Morningglory plant response rating (morningglory [2]; [7])
0: Plant response rating (0 to 100), Blackgrass (blackgrass; Postemergence, 31 g ai/ha) | Plant response rating (0 to 100), Foxtail, Green (green foxtail; Postemergence, 31 g ai/ha) | Plant response rating (0 to 100), Ryegrass, Italian (Italian ryegrass; Postemergence, 31 g ai/ha) | Plant response rating (0 to 100), Ryegrass, Italian (Italian ryegrass; Postemergence, 62 g ai/ha) | Plant response rating (0 to 100), Wheat (wheat; Postemergence, 31 g ai/ha) | Cocklebur plant response rating (cocklebur; [6]) | Cocklebur plant response rating (cocklebur; [7]) | Plant response rating (0 to 100), Cocklebur (cocklebur; Postemergence, 31 g ai/ha) | Plant response rating (0 to 100), Cocklebur (cocklebur; Postemergence, 62 g ai/ha) | Plant response rating, Cocklebur (cocklebur; [8]) | Plant response rating, Cocklebur (cocklebur; [9]) | Plant response rating, Cocklebur (cocklebur; [10]) | Cocklebur plant response rating (cocklebur; [11]) | Plant response rating (0 to 100), Corn (corn; Postemergence, 31 g ai/ha) | Plant response rating (0 to 100), Corn (corn; Postemergence, 62 g ai/ha) | Plant response rating, Corn (corn; [8]) | Plant response rating, Corn (corn; [9]) | Plant response rating (0 to 100), Crabgrass, Large (crabgrass; Postemergence, 31 g ai/ha) | Plant response rating (0 to 100), Crabgrass, Large (crabgrass; Postemergence, 62 g ai/ha) | Plant response rating, Crabgrass, Large (crabgrass; [8]) | Plant response rating (0 to 100), Cupgrass, Woolly (woolly cupgrass; Postemergence, 31 g ai/ha) | Plant response rating (0 to 100), Cupgrass, Woolly (woolly cupgrass; Postemergence, 62 g ai/ha) | Plant response rating (0 to 100), Kochia (kochia; Postemergence, 31 g ai/ha) | Plant response rating (0 to 100), Kochia (kochia; Postemergence, 62 g ai/ha) | Plant response rating, Kochia (kochia; [8]) | Plant response rating, Kochia (kochia; [9]) | Plant response rating (0 to 100), Morningglory (morningglory [2]; Postemergence, 31 g ai/ha) | Plant response rating (0 to 100), Morningglory (morningglory [2]; Postemergence, 62 g ai/ha) | Plant response rating, Morningglory (morningglory [2]; [8]) | Plant response rating, Morningglory (morningglory [2]; [9]) | Plant response rating, Morningglory (morningglory [2]; [10]) | Plant response rating (0 to 100), Nutsedge, Yellow (yellow nutsedge; Postemergence, 31 g ai/ha) | Plant response rating (0 to 100), Nutsedge, Yellow (yellow nutsedge; Postemergence, 62 g ai/ha) | Plant response rating, Nutsedge, Yellow (yellow nutsedge; [8]) | Plant response rating, Nutsedge, Yellow (yellow nutsedge; [9]) | Plant response rating (0 to 100), Pigweed (pigweed; Postemergence, 31 g ai/ha) | Plant response rating (0 to 100), Pigweed (pigweed; Postemergence, 62 g ai/ha) | Plant response rating, Pigweed (pigweed; [8]) | Plant response rating (0 to 100), Soybean (soybean; Postemergence, 31 g ai/ha) | Plant response rating (0 to 100), Soybean (soybean; Postemergence, 62 g ai/ha) | Plant response rating, Soybean (soybean; [8]) | Plant response rating, Soybean (soybean; [10]) | Sunflower plant response rating [3, 6] | Plant response rating, Sunflower ([3]; Preemergence)
35: Plant response rating, Wheat (wheat; [9])
50: Morningglory plant response rating (morningglory [1]; [4]) | Plant response rating, Cupgrass, Woolly (woolly cupgrass; [9]) | Sunflower plant response rating [3, 11]
20: Wheat plant response rating (wheat; [6]) | Plant response rating (0 to 100), Wheat (wheat; Postemergence, 62 g ai/ha) | Plant response rating, Cupgrass, Woolly (woolly cupgrass; [8]) | Plant response rating, Soybean (soybean; [9])
10: Plant response rating, Wheat (wheat; [10]) | Plant response rating, Crabgrass, Large (crabgrass; [9]) | Plant response rating, Pigweed (pigweed; [9])
70: Plant response rating, Barnyardgrass (barnyardgrass; Postemergence, 125 g ai/ha) | Corn plant response rating (corn; [7]) | Morningglory plant response rating (morningglory [2]; [6]) | Soybean plant response rating (soybean; [11])
45: Sunflower plant response rating [3, 7]
30: Wheat plant response rating (wheat; [7]) | Soybean plant response rating (soybean; [6])
85: Plant response rating, Ryegrass, Italian (Italian ryegrass; [8]) | Crabgrass, Large plant response rating (crabgrass; [6]) | Plant response rating, Crabgrass, Large (crabgrass; [10]) | Pigweed plant response rating (pigweed; [6])
60: Morningglory plant response rating (morningglory [1]; [5]) | Plant response rating (0 to 100), Blackgrass (blackgrass; Postemergence, 62 g ai/ha) | Plant response rating, Foxtail, Green (green foxtail; [8]) | Wheat plant response rating (wheat; [11]) | Nutsedge, Yellow plant response rating (yellow nutsedge; [6])
90: Barnyardgrass plant response rating (barnyardgrass; [5]) | Plant response rating, Blackgrass (blackgrass; [8]) | Plant response rating, Ryegrass, Italian (Italian ryegrass; [9]) | Cupgrass, Woolly plant response rating (woolly cupgrass; [6]) | Cupgrass, Woolly plant response rating (woolly cupgrass; [7])
80: Barnyardgrass plant response rating (barnyardgrass; [4]) | Plant response rating, Foxtail, Green (green foxtail; [9]) | Ryegrass, Italian plant response rating (Italian ryegrass; [7]) | Corn plant response rating (corn; [11]) | Plant response rating, Cupgrass, Woolly (woolly cupgrass; [10])
75: Plant response rating, Ryegrass, Italian (Italian ryegrass; [10]) | Nutsedge, Yellow plant response rating (yellow nutsedge; [7])
100: Plant response rating, Barnyardgrass (barnyardgrass; Preemergence, 500 g ai/ha) | Plant response rating, Morningglory (morningglory [1]; Preemergence, 500 g ai/ha) | Blackgrass plant response rating (blackgrass; [6]) | Blackgrass plant response rating (blackgrass; [7]) | Plant response rating, Blackgrass (blackgrass; [10]) | Blackgrass plant response rating (blackgrass; [11]) | Foxtail, Green plant response rating (green foxtail; [11]) | Ryegrass, Italian plant response rating (Italian ryegrass; [11]) | Crabgrass, Large plant response rating (crabgrass; [11]) | Kochia plant response rating (kochia; [6]) | Kochia plant response rating (kochia; [7]) | Plant response rating, Kochia (kochia; [10]) | Kochia plant response rating (kochia; [11]) | Morningglory plant response rating (morningglory [2]; [11]) | Nutsedge, Yellow plant response rating (yellow nutsedge; [11]) | Pigweed plant response rating (pigweed; [7]) | Pigweed plant response rating (pigweed; [11]) | Plant response rating, Sedge, Umbrella (umbrella sedge; 62 g ai/ha, scale 0 to 100 (0 no effect, 100 complete control)) | Plant response rating, Sedge, Umbrella (umbrella sedge; [12])

Cc1cc[n+]([O-])c(S(=O)(=O)Cc2c(C(F)(F)F)nn(C)c2OCC(F)(F)F)c1 [Compound 31]
85: Corn plant response rating (corn; [14]) | Plant response rating, Morningglory (morningglory [2]; [10]) | Plant response rating, Sedge, Umbrella (umbrella sedge; 62 g ai/ha, scale 0 to 100, 0 no effect, 100 complete control, 13 to 15 days)
65: Plant response rating, Sedge, Umbrella (umbrella sedge; 31 g ai/ha, scale 0 to 100 (0 no effect, 100 complete control))
0: Plant response rating, Wheat (wheat; [10]) | Cocklebur plant response rating (cocklebur; [6]) | Plant response rating, Cocklebur (cocklebur; [10]) | Plant response rating, Corn (corn; [10])
80: Morningglory plant response rating (morningglory [1]; [4]) | Blackgrass plant response rating (blackgrass; [6])
95: Plant response rating, Cupgrass, Woolly (woolly cupgrass; [10])
20: Sunflower plant response rating [3, 6] | Plant response rating, Sunflower ([3]; Preemergence)
30: Wheat plant response rating (wheat; [6])
90: Barnyardgrass plant response rating (barnyardgrass; [4]) | Morningglory plant response rating (morningglory [1]; [5])
10: Plant response rating, Soybean (soybean; [10])
50: Plant response rating (0 to 100), Cocklebur (cocklebur; Preemergence, 250 g ai/ha) | Corn plant response rating (corn; [6])
15: Soybean plant response rating (soybean; [6])
98: Plant response rating (0 to 100), Corn (corn; Preemergence, 250 g ai/ha)
60: Morningglory plant response rating (morningglory [1]; [13]) | Plant response rating, Blackgrass (blackgrass; [10]) | Ryegrass, Italian plant response rating (Italian ryegrass; [6]) | Plant response rating, Nutsedge, Yellow (yellow nutsedge; [10])
100: Barnyardgrass plant response rating (barnyardgrass; [5]) | Plant response rating, Barnyardgrass (barnyardgrass; Preemergence, 500 g ai/ha) | Plant response rating, Morningglory (morningglory [1]; Preemergence, 500 g ai/ha) | Plant response rating (0 to 100), Blackgrass (blackgrass; Preemergence, 250 g ai/ha) | Blackgrass plant response rating (blackgrass; [14]) | Foxtail, Green plant response rating (green foxtail; [6]) | Plant response rating, Foxtail, Green (green foxtail; [10]) | Crabgrass, Large plant response rating (crabgrass; [6]) | Plant response rating, Crabgrass, Large (crabgrass; [10]) | Plant response rating (0 to 100), Crabgrass, Large (crabgrass; Preemergence, 250 g ai/ha) | Cupgrass, Woolly plant response rating (woolly cupgrass; [6]) | Plant response rating (0 to 100), Cupgrass, Woolly (woolly cupgrass; Preemergence, 250 g ai/ha) | Kochia plant response rating (kochia; [6]) | Plant response rating, Kochia (kochia; [10]) | Morningglory plant response rating (morningglory [2]; [6]) | Nutsedge, Yellow plant response rating (yellow nutsedge; [6]) | Pigweed plant response rating (pigweed; [6]) | Plant response rating, Pigweed (pigweed; [10]) | Plant response rating, Sedge, Umbrella (umbrella sedge; 125 g ai/ha, scale 0 to 100, 0 no effect, 100 complete control, 13 to 15 days) | Plant response rating, Sedge, Umbrella (umbrella sedge; [12])
40: Plant response rating, Ryegrass, Italian (Italian ryegrass; [10]) | Cocklebur plant response rating (cocklebur; [14])
70: Barnyardgrass plant response rating (barnyardgrass; [13])
